From US12378278B2, “Mimetics of heparin oligosaccharides” (Board of Trustees of Michigan State University, priority 2019, dated 2025)

Legend:
[1] = molecular target: FGF-2-heparin interaction (Homo sapiens, UniProt P09038); assay: Competition SPR on the FGF-2-heparin interaction; type: binding; conditions: FGF-2 50 nM pre-mixed with compound, biotinylated heparin on SA sensor chip
Description: In order to gain more insights into the structure-activity relationship between heparin and FGF-2, the competition assay was performed by the Linhardt group (FIG. 4). Biotinylated heparin was immobilized on the biosensor, and 27 pseudo-hexasaccharides (10 uM) was mixed with FGF-2 (50 nM) individually. […] For IC50 measurements, biotinylated heparin was immobilized on the SA sensor chip as described above, and FGF-2 (50 nM) was pre-mixed with different concentrations of pseudo-hexasaccharides. […] According to competition SPR results, successive fully sulfated disaccharide modules are required for potent competitive activity.

[2] = molecular target: FGF-2 (Homo sapiens, UniProt P09038); assay: Direct binding to immobilized FGF-2 by surface plasmon resonance (SPR); conditions: FGF-2 immobilized on CDH sensor chip
FGF-2, sequence (P09038 143-288, species assumed): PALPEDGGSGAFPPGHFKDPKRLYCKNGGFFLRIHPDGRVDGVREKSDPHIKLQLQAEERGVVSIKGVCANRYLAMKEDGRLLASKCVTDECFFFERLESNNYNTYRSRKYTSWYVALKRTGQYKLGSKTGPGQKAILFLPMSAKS
Excerpt: FGF-2 was immobilized on CDH sensor chip surface through EDC/NHS coupling, and fully sulfated (50), O-sulfated (50z) and N-sulfated (50m) pseudo-hexasaccharides were selected as analytes. […] The SPR results correlated well with that of heparin hexasaccharides (36, 51, 52) (Chem. Eur. J. 2006, 12 (34), 8664-8686).
FGF-2 was immobilized on sensor chip by primary amine coupling reaction. The surface of a CDH sensor chip (ForteBio, Inc., Molecular Devices, USA) was activated using freshly mixed N-hydroxysuccimide (NHS; 0.05 M) and 1-(3-(dimethylamino)propyl)-ethylcarbodiimide (EDC; 0.2 M) (1/1, v/v) in water, followed by the injection of FGF-2 (50 ug/ml) in PBS buffer. The remaining active esters were quenched by ethanolamine (1.0 M). All measurements were performed using 0.01% Tween 20 PBS buffer. Aqueous NaCl (2.0 M) was employed for regeneration to achieve baseline status.

FGF-2-heparin interaction, sequence (P09038 143-288, species assumed): as above

Row | Compound | IC50 [1] [µM] | other results
1 | CC(=O)NCCOC1OC(C(=O)O)C(OC2OC(CO)C(OCCC(=O)NCCOC3OC(C(=O)O)C(OC4OC(COS(=O)(=O)O)C(OCCC(=O)NCCOC5OC(C(=O)O)C(OC6OC(COS(=O)(=O)O)C(OCCC(=O)O)C(O)C6NS(=O)(=O)O)C(O)C5OS(=O)(=O)O)C(O)C4NS(=O)(=O)O)C(O)C3OS(=O)(=O)O)C(O)C2NS(=O)(=O)O)C(O)C1O (centres unmarked) [Compound 50a] | 10.8 | –
2 | CC(=O)NCCOC1OC(C(=O)O)C(OC2OC(COS(=O)(=O)O)C(OCCC(=O)NCCOC3OC(C(=O)O)C(OC4OC(COS(=O)(=O)O)C(OCCC(=O)NCCOC5OC(C(=O)O)C(OC6OC(COS(=O)(=O)O)C(OCCC(=O)O)C(O)C6NS(=O)(=O)O)C(O)C5OS(=O)(=O)O)C(O)C4NS(=O)(=O)O)C(O)C3OS(=O)(=O)O)C(O)C2NC(C)=O)C(O)C1OS(=O)(=O)O (centres unmarked) [Compound 50b] | 4 | –
3 | CC(=O)NCCOC1OC(C(=O)O)C(OC2OC(COS(=O)(=O)O)C(OCCC(=O)NCCOC3OC(C(=O)O)C(OC4OC(COS(=O)(=O)O)C(OCCC(=O)NCCOC5OC(C(=O)O)C(OC6OC(COS(=O)(=O)O)C(OCCC(=O)O)C(O)C6NC(C)=O)C(O)C5OS(=O)(=O)O)C(O)C4NS(=O)(=O)O)C(O)C3OS(=O)(=O)O)C(O)C2NS(=O)(=O)O)C(O)C1OS(=O)(=O)O (centres unmarked) [Compound 50r] | 3.5 | –
4 | CC(=O)NCCOC1OC(C(=O)O)C(OC2OC(COS(=O)(=O)O)C(OCCC(=O)NCCOC3OC(C(=O)O)C(OC4OC(COS(=O)(=O)O)C(OCCC(=O)NCCOC5OC(C(=O)O)C(OC6OC(COS(=O)(=O)O)C(OCCC(=O)O)C(O)C6NC(C)=O)C(O)C5OS(=O)(=O)O)C(O)C4NC(C)=O)C(O)C3OS(=O)(=O)O)C(O)C2NC(C)=O)C(O)C1OS(=O)(=O)O (centres unmarked) [Compound 50z] | – | Kd ([2]; compound as analyte): 0.94 µM
5 | N-Acetamidoethyl O-(4-O-carboxyethyl-2-deoxy-2-sulfoamino-1-thio-α-D-glucopyranoside)-(1→4)-O-(6-O-carboxyl-1-thio-α-L-idopyranosiduronate)-(1→4)-O-(2-deoxy-2-sulfoamino-1-thio-α-D-glucopyranoside)-(1→4)-O-(6-O-carboxyl-1-thio-α-L-idopyranosiduronate)-(1→4)-O-(2-deoxy-2-sulfoamino-1-thio-α-D-glucopyranoside)-(1→4)-O-(6-O-carboxyl-1-thio-α-L-idopyranosiduronate) [Compound 50m] | – | binding to FGF-2 (in words) [2]: weak signal
